The structures appear in SMILES notation.

Experiment [1] concerns SGC-7901. Kind of experiment: Antiproliferative activity against human SGC7901 cells after 48 hrs by MTT assay. Particulars: SGC-7901, 48 h. Type of experiment: functional, cell-based.
A further experiment concerns MGC-803. Briefly: Antiproliferative activity against human MGC803 cells after 48 hrs by MTT assay. Type of experiment: functional, cell-based. As to conditions: MGC-803, 48 h. In general terms: Tetrazolium assays rely on reduction of a dye to a coloured formazan, in cell work by metabolically active cells.
In the next experiment the test system is SMMC-7721. Briefly: Antiproliferative activity against human SMMC7721 cells after 48 hrs by MTT assay. Type of experiment: functional, cell-based. Particulars: SMMC-7721, 48 h.
The next experiment deals with U-87 MG. Briefly: Antiproliferative activity against human U87 cells after 48 hrs by MTT assay. The experiment is classed as functional, cell-based, U-87MG ATCC.
For experiment [2], the system named is SGC-7901. Briefly: Induction of mitochondrial membrane depolarization in human SGC7901 cells assessed as cells with mitochondrial membrane potential loss after 48 hrs by JC-1 staining based flow cytometric analysis (reference value: 9.29%). Type of experiment: functional.
The subject of experiment [3] is SGC-7901. Briefly: Induction of mitochondrial membrane depolarization in human SGC7901 cells assessed as cells with intact mitochondrial membrane potential after 48 hrs by JC-1 staining based flow cytometric analysis (reference value: 87.3%). The experiment is classed as functional.

The term IC50 denotes the point on the concentration scale where inhibition reaches its midpoint. Read a low IC50 as higher potency. Consider `O=C(/C=C/c1ccc(Oc2cc(=O)oc3ccccc23)cc1)/C=C/c1cccnc1`, for which the 50% inhibitory concentration (IC50) with SGC-7901 [1] was determined as 17.4 µM; with MGC-803, 24.5 µM; with SMMC-7721, 33.4 µM; with U-87 MG it was 37 µM.
As for `O=C(/C=C/c1ccc(Cl)cc1)/C=C/c1ccc(Oc2cc(=O)oc3ccccc23)cc1`, the half-maximal inhibitory concentration (IC50) was 48.3 µM in the experiment on SGC-7901 [1] and 55.2 µM in the experiment with MGC-803.
Turning to `COc1cc(OC)c2c(=O)c(OCCCOc3ccccc3/C=C/C(=O)/C=C/c3cccc([N+](=O)[O-])c3)c(-c3cc(OC)c(OC)c(OC)c3)oc2c1`, the 50% inhibitory concentration (IC50) came out at 5.4 µM in the experiment on SGC-7901 [1], 5.73 µM in the experiment with MGC-803, 9.2 µM in the experiment with SMMC-7721 and 7.92 µM with U-87 MG.
For `COc1cc(OC)c2c(=O)c(OCCCCOc3ccccc3/C=C/C(=O)/C=C/c3cccc([N+](=O)[O-])c3)c(-c3cc(OC)c(OC)c(OC)c3)oc2c1`, in that order: 4.03 µM, 5.06 µM, 7.31 µM and 10 µM.
For `COc1ccc(/C=C/C(=O)/C=C/c2ccc(Oc3cc(=O)oc4ccccc34)cc2)cc1OC`, the IC50 with SGC-7901 [1] and with MGC-803 was 49.4 µM each time.
Take `N#CC(C#N)=NNc1cccc(Cl)c1` [CARBONYL CYANIDE M-CHLOROPHENYLHYDRAZONE]: the Activity was 64.6% with SGC-7901 [2] and 27.7% in the experiment with SGC-7901 [3].
Consider `COc1cc(OC)c2c(=O)c(OCCCOc3ccc(/C=C/C(=O)/C=C/c4scnc4C)cc3)c(-c3cc(OC)c(OC)c(OC)c3)oc2c1`, for which the half-maximal inhibitory concentration (IC50) in the experiment on SGC-7901 [1] amounted to 49.4 µM; with MGC-803, 31.7 µM; with SMMC-7721, 34.3 µM; in the experiment with U-87 MG it was 40.4 µM.
The corresponding values for `COc1cc(OC)c2c(=O)c(OCCCCOc3ccccc3/C=C/C(=O)/C=C/c3ccco3)c(-c3cc(OC)c(OC)c(OC)c3)oc2c1` are 8.98 µM, 7.9 µM, 8.48 µM and 10.7 µM.
On to `O=C(/C=C/c1ccc(Oc2cc(=O)oc3ccccc23)cc1)/C=C/c1ccccn1`, for which the IC50 with SGC-7901 [1] was found to be 25.2 µM; with MGC-803, 19.4 µM; in the experiment on SMMC-7721, 35.4 µM; in the experiment on U-87 MG it was 50.8 µM.
The corresponding values for `COc1cc(OC)c2c(=O)c(OCCCCOc3ccccc3/C=C/C(=O)/C=C/c3ccc(Cl)cc3)c(-c3cc(OC)c(OC)c(OC)c3)oc2c1` are 9.15 µM, 18.6 µM, 41.7 µM and 21.1 µM.
The corresponding values for `COc1cc(OC)c2c(=O)c(OCCCCOc3ccccc3/C=C/C(=O)/C=C/c3cccs3)c(-c3cc(OC)c(OC)c(OC)c3)oc2c1` are 26.5 µM, 20.5 µM, 14.9 µM and 21.1 µM.
On to `COc1cc(OC)c2c(=O)c(OCCCOc3ccccc3/C=C/C(=O)/C=C/c3scnc3C)c(-c3cc(OC)c(OC)c(OC)c3)oc2c1`, for which the IC50 with SGC-7901 [1] turned out to be 4.78 µM; in the experiment on MGC-803 it was 5.57 µM; in the experiment with SMMC-7721 it was 7.21 µM; in the experiment on U-87 MG it was 9.63 µM.
Consider `COc1cc(OC)c2c(=O)c(OCCCCOc3ccc(/C=C/C(=O)/C=C/c4ccccn4)cc3)c(-c3cc(OC)c(OC)c(OC)c3)oc2c1`, for which the IC50 turned out to be 2.41 µM in the experiment with SGC-7901 [1], 1.96 µM in the experiment with MGC-803, 1.69 µM with SMMC-7721 and 4.69 µM in the experiment with U-87 MG.
The corresponding values for `COc1cccc2c1C(=O)c1c(O)c3c(c(O)c1C2=O)C[C@@](O)(C(=O)CO)C[C@@H]3O[C@H]1C[C@H](N)[C@H](O)[C@H](C)O1` [DOXORUBICIN] are 0.87 µM, 0.4 µM, 0.73 µM and 0.48 µM.
For `COc1cc(OC)c2c(=O)c(OCCCCOc3ccc(/C=C/C(=O)/C=C/c4scnc4C)cc3)c(-c3cc(OC)c(OC)c(OC)c3)oc2c1`, in that order: 42 µM, 54.6 µM, 65 µM and 58.7 µM.

The values are drawn from ChEMBL document CHEMBL4270560, “Novel curcumin analogue hybrids: Synthesis and anticancer activity” (Eur J Med Chem, 2018).
